Experimental data taken from patent US6905714B2, “Method for modulating steroidogenic activity” (priority 2000, dated 2005).
“Also recorded” adds a separate entry of the source.

Experiments:
progesterone receptor = biological target: T1, progesterone receptor (Homo sapiens, UniProt P06401); assay: Progesterone receptor transactivation, luciferase reporter in HeLa cells
T1 sequence (P06401 1-933): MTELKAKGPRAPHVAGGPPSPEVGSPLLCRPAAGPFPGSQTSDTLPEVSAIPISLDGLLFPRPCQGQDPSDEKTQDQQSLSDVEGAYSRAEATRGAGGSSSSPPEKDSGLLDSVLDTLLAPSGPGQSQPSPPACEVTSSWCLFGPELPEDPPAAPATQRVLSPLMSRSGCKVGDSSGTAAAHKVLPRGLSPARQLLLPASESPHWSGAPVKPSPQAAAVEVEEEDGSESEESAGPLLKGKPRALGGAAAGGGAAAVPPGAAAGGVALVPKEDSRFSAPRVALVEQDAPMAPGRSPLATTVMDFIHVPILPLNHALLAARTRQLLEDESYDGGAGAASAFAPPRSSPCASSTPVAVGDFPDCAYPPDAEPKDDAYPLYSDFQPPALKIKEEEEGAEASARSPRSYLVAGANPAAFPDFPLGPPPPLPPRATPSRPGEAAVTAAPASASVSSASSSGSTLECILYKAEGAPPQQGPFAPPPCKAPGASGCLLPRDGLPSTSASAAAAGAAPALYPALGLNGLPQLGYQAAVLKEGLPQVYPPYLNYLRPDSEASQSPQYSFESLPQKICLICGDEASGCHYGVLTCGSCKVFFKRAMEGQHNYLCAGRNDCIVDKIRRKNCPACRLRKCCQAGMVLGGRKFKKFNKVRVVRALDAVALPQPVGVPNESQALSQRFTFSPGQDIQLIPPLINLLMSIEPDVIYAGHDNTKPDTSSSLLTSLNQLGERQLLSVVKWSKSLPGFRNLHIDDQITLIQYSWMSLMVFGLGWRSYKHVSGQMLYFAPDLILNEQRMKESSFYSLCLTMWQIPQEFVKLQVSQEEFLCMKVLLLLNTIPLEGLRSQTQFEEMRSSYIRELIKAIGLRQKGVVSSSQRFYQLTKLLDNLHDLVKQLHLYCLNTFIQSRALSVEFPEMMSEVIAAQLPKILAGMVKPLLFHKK
Description: (§1) Thus, HeLa cells were cotransfected with an androgen receptor (AR) expression plasmid, a plasmid for expression of β-galactosidase (β-gal) and a luciferase reporter plasmid, ARE-Tata-luc (Jenster 1997) and then incubated with ethanol as a solvent control, or with the herbal extracts indicated in Table 1. Herbal extracts were added to the cells six hours after transfection. Thirty-six hours later, the cells were harvested and cell extracts assayed for luciferase activity.
(§2) The DNA mix contained an AR expression vector, a reporter gene vector (ARE-Tata-Luc) and a βGal vectors, the last for purposes of normalizing results for the transfection efficiency. The AR expression vector comprises a cDNA encoding AR and expressed from a SV40 promoter and a rabbit β-globin polyadenylation signal, all cloned in a pBR328 vector. The β-gal vector comprises a bacterial lacZ gene under control of an SV40 promoter-enhancer. The DNA mix was preincubated for 45 min at room temperature with lipofectamine (Promega, Madison, Wis.) in a 400 μl serum-free medium. […] Cell lysates (100 μl) were added to 20 μl of luciferase substrate and luciferase activity measured with a luminometer. Transfection efficiency was assessed by βGal activity and luciferase activity normalized to the protein content of the cell lysates. Total protein in the supernatant was quantified with bovine serum albumin as the standard.

[1] = tested on: ventral prostate gland, immature Wistar rats; assay: Growth of the ventral prostate gland in immature Wistar rats; assay type: in vivo, rat; settings: testosterone intramuscularly, alone (FIG. 6a)
Description: The growth of the ventral prostate gland, an androgen-dependent tissue, in immature Wistar rats was measured.
To determine the androgenic effect of an ethanolic EU extract in animals, the growth of the ventral prostate gland, an androgen-dependent tissue, in immature Wistar rats was measured. […] In this model, exogenous androgen administration can be directly correlated with the growth of the ventral prostate.

glucocorticoid receptor = biological target: T2, glucocorticoid receptor (Homo sapiens, UniProt P04150); assay: Glucocorticoid receptor transactivation, luciferase reporter in HeLa cells; assay type: cell-based
T2 construct: expressed in transfected cells
T2 sequence (P04150 1-777): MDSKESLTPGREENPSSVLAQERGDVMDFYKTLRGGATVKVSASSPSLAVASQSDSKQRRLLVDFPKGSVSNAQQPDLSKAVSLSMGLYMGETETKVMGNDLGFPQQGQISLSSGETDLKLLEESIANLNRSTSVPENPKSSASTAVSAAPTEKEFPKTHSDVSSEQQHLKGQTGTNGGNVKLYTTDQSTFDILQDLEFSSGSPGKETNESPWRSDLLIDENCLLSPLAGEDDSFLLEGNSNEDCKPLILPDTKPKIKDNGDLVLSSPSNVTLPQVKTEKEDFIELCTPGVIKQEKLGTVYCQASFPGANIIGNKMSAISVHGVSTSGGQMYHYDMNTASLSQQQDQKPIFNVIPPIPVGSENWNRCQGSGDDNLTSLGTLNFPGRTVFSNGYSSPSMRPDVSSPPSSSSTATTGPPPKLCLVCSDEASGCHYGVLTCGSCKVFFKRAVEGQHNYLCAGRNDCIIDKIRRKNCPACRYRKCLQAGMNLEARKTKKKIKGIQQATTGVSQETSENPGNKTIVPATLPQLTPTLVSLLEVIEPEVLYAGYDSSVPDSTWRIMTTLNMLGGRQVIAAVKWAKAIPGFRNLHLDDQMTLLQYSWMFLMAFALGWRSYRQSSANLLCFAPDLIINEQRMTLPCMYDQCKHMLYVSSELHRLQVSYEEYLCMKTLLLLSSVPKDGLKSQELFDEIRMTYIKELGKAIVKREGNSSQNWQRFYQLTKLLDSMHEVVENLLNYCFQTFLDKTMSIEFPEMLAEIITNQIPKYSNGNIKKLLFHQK
Description: as §1, §2

androgen receptor = biological target: T3, androgen receptor (Homo sapiens, UniProt P10275); settings: 0.3 to 10 nM; 3 nM tritiated testosterone
T3 sequence (P10275 1-920): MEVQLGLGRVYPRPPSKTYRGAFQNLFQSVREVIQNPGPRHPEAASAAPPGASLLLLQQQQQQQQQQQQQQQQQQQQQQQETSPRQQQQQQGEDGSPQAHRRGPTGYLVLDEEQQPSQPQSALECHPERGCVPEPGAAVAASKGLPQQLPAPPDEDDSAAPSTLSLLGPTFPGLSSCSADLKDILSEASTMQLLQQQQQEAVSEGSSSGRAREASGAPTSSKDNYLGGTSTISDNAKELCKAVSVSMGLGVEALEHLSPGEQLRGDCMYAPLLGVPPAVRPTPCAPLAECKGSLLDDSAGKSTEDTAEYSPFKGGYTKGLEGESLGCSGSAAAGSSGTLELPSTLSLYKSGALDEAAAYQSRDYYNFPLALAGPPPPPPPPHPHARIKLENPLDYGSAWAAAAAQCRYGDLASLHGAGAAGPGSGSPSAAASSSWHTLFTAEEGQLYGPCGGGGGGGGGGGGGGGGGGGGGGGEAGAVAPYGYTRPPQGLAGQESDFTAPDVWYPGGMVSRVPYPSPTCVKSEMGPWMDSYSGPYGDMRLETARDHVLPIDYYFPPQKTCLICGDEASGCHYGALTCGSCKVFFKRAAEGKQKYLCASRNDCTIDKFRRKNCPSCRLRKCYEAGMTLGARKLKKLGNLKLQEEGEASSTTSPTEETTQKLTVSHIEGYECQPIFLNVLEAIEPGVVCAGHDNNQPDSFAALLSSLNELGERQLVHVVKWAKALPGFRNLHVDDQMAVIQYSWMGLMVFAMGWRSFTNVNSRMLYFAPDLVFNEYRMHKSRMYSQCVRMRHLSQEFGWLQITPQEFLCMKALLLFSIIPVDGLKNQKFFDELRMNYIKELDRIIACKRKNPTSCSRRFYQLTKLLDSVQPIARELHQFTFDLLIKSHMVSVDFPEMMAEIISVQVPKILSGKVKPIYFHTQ

CC(=O)[C@H]1CC[C@H]2[C@@H]3CCC4=CC(=O)CC[C@]4(C)[C@H]3CC[C@]12C [Progesterone, progesterone]
Ratio of Luc activity as percentage (%) of 1 nM ligand (progesterone receptor; substance alone): 100% | Luc activity (fold induction) (progesterone receptor; substance alone (extract, or 1 nM progesterone)): 67 fold

C[C@]12CC[C@H]3[C@@H](CCC4=CC(=O)CC[C@@]43C)[C@@H]1CC[C@@H]2O [testosterone]
prostate weight (per unit body weight) [1]: dose-dependent increase in prostate weight; also recorded: dose-dependent increments in prostatic weight

C[C@]12CCC(=O)C=C1CC[C@@H]1[C@@H]2[C@@H](O)C[C@@]2(C)[C@H]1CC[C@]2(O)C(=O)CO [Cortisol, cortisol]
Ratio of Luc activity as percentage (%) of 1 nM ligand (glucocorticoid receptor; substance alone): 100% | Luc activity (fold induction) (glucocorticoid receptor; substance alone (extract, or 1 nM cortisol)): 194 fold | displacement of tritiated testosterone (androgen receptor): does not displace tritiated testosterone
